# From patent publication US20180251431A1 (VERTEX PHARMACEUTICALS INCORPORATED, priority 2016, published 2018)
# Test system: HEK293 cells
# Assay: HEK293 VLCFA-LPC IC50 determination (13C-labeled C26:0 LPC by UHPLC/MS)
# Type: cell-based, human
# Conditions: Homo sapiens, HEK293, 48 h, average of one or more replicates; 13C-labeled C26:0 LPC, 48 hours; read-out: Average HEK293 IC50
# In short: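 Suspension HEK293 cells (final 0.5 million/mL after mixing with equal volume) incubated 48 hours with compound plus 13C-acetate (1.0 mg/mL in added media), shaking at 37° C. Lipids extracted with hexane/isopropanol or methanol, C13:0 LPC standard. UHPLC/MS of 13C-labeled C26:0 LPC (638.500/104.100 m/z); IC50 by four-parameter fit.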
row,SMILES,IC50 [µM]
1,"COc1ccc(-n2ccc(NC(=O)C3(c4ccccc4F)CC3)n2)cc1F [Compound 322, N-[1-(3-fluoro-4-methoxy-phenyl)pyrazol-3-yl]-1-(2-fluorophenyl)cyclopropanecarboxamide]",4
2,"O=C(Nc1ccn(-c2ccc(O)c(F)c2)n1)C1(c2ccccc2F)CC1 [Compound 355, N-[1-(3-fluoro-4-hydroxy-phenyl)pyrazol-3-yl]-1-(2-fluorophenyl)cyclopropanecarboxamide]",1.7
3,"Cc1cc(-n2ccc(NC(=O)C3(c4ccccc4F)CC3)n2)sn1 [Compound 401, 1-(2-fluorophenyl)-N-[1-(3-methylisothiazol-5-yl)pyrazol-3-yl]cyclopropanecarboxamide]",2.3
4,"O=C(Nc1nn(-c2ccnc(F)c2)cc1F)C1(c2ccccc2F)CC1 [Compound 365, N-(4-fluoro-1-(2-fluoropyridin-4-yl)-1H-pyrazol-3-yl)-1-(2-fluorophenyl)cyclopropane-1-carboxamide]",0.41
5,"CC(C)(C)c1ncc(-n2ccc(NC(=O)C3(c4ccccc4F)CC3)n2)cn1 [Compound 383, N-[1-(2-tert-butylpyrimidin-5-yl)pyrazol-3-yl]-1-(2-fluorophenyl)cyclopropanecarboxamide]",> 5
6,"COc1cc(-n2ccc(NC(=O)C3(c4ccccc4F)CC3)n2)nc(C)n1 [Compound 359, 1-(2-fluorophenyl)-N-[1-(6-methoxy-2-methyl-pyrimidin-4-yl)pyrazol-3-yl]cyclopropanecarboxamide]",> 5
7,"CC(C)(O)c1ncc(-n2ccc(NC(=O)C3(c4ccccc4F)CC3)n2)cn1 [Compound 382, 1-(2-fluorophenyl)-N-[1-[2-(1-hydroxy-1-methyl-ethyl)pyrimidin-5-yl]pyrazol-3-yl]cyclopropanecarboxamide]",> 5

# Same assay, conditions: Homo sapiens, HEK293, HEK293 cells; average of one or more replicates; read-out: Average HEK293 IC50
row,SMILES,IC50 [µM]
1,"O=C(Cc1ccccc1F)Nc1ccn(-c2cncnc2)n1 [Compound 15, 2-(2-fluorophenyl)-N-(1-pyrimidin-5-ylpyrazol-3-yl)acetamide]",1
2,"Cc1ccccc1C1(C(=O)Nc2ccn(-c3ccccc3)n2)CC1 [Compound 12, 1-(o-tolyl)-N-(1-phenylpyrazol-3-yl)cyclopropanecarboxamide]",0.13
3,"O=C(Nc1ccn(-c2cncc(OC(F)F)c2)n1)C1(c2cnccn2)CC1 [Compound 496, N-[1-[5-(difluoromethoxy)-3-pyridyl]pyrazol-3-yl]-1-pyrazin-2-yl-cyclopropanecarboxamide]",> 5
4,"O=C(Nc1ccn(-c2ccnc(F)c2)n1)C1(c2ccc(Cl)cc2Cl)CC1 [Compound 253, 1-(2,4-dichlorophenyl)-N-[1-(2-fluoro-4-pyridyl)pyrazol-3-yl]cyclopropanecarboxamide]",0.12
5,"O=C(Nc1ccn(-c2cc(F)ncc2F)n1)C1(c2ccccc2)CC1 [Compound 115, N-[1-(2,5-difluoro-4-pyridyl)pyrazol-3-yl]-1-phenyl-cyclopropanecarboxamide]",0.12
6,"O=C(Nc1ccn(-c2cnccn2)n1)C1(c2ccccc2)CC1 [Compound 233, 1-phenyl-N-(1-pyrazin-2-ylpyrazol-3-yl)cyclopropanecarboxamide]",1.5
7,"Cn1ccc(-n2ccc(NC(=O)Cc3ccccc3)n2)n1 [Compound 228, N-[1-(1-methylpyrazol-3-yl)pyrazol-3-yl]-2-phenyl-acetamide]",> 5
8,"O=C(Nc1ccn(-c2cc(F)cc(F)c2)n1)C1(c2cccs2)CC1 [Compound 480, N-[1-(3,5-difluorophenyl)pyrazol-3-yl]-1-(2-thienyl)cyclopropanecarboxamide]",0.23
9,"COc1ncc(-n2ccc(NC(=O)C3(c4ncccc4F)CC3C)n2)cc1F (stereo not drawn) [Compound 509, N-[1-(5-fluoro-6-methoxy-3-pyridyl)pyrazol-3-yl]-1-(3-fluoro-2-pyridyl)-2-methyl-cyclopropanecarboxamide]",0.18
10,"COc1cc(-n2ccc(NC(=O)C3(c4cccs4)CC3)n2)ccn1 [Compound 478, N-[1-(2-methoxy-4-pyridyl)pyrazol-3-yl]-1-(2-thienyl)cyclopropanecarboxamide]",0.12
11,"Cn1nccc1-n1ccc(NC(=O)C2(c3ccccc3F)CC2)n1 [Compound 417, 1-(2-fluorophenyl)-N-[1-(2-methylpyrazol-3-yl)pyrazol-3-yl]cyclopropanecarboxamide]",0.29
12,"O=C(Nc1ccn(-c2ncccc2F)n1)C1(c2ccccc2)CC1 [Compound 82, N-[1-(3-fluoro-2-pyridyl)pyrazol-3-yl]-1-phenyl-cyclopropanecarboxamide]",0.19
13,"CC(C)c1ccc(CC(=O)Nc2ccn(-c3ccccc3)n2)cc1 [Compound 10, 2-(4-isopropylphenyl)-N-(1-phenylpyrazol-3-yl)acetamide]",4.4
14,"O=C(Nc1ccn(-c2ccc(F)c(F)c2)n1)C1(c2ccccc2F)CC1 [Compound 190, N-[1-(3,4-difluorophenyl)pyrazol-3-yl]-1-(2-fluorophenyl)cyclopropanecarboxamide]",0.15
15,"O=C(Cc1ccccc1F)Nc1ccn(-c2ccnc(C(F)(F)F)c2)n1 [Compound 122, 2-(2-fluorophenyl)-N-[1-[2-(trifluoromethyl)-4-pyridyl]pyrazol-3-yl]acetamide]",1.6
16,"O=C(Nc1ccn(-c2ccccc2)n1)C1(c2ccccc2)CCCC1 [Compound 34, 1-phenyl-N-(1-phenylpyrazol-3-yl)cyclopentanecarboxamide]",2.1
17,"O=C(Nc1ccn(-c2ccncc2)n1)C1(c2ncccc2F)CC12CC2 (stereo not drawn) [Compound 526, 2-(3-fluoro-2-pyridyl)-N-[1-(4-pyridyl)pyrazol-3-yl]spiro[2.2]pentane-2-carboxamide]",1.9

row,SMILES,IC50 [µM]
1,"COc1cc(-n2ccc(NC(=O)C3(c4ccc(F)cn4)CC3)n2)ccn1 [Compound 485, 1-(5-fluoro-2-pyridyl)-N-[1-(2-methoxy-4-pyridyl)pyrazol-3-yl]cyclopropanecarboxamide]",1.5
2,"O=C(Nc1ccn(-c2ccnc(F)c2)n1)C1(c2ccncc2F)CC1 [Compound 313, 1-(3-fluoro-4-pyridyl)-N-[1-(2-fluoro-4-pyridyl)pyrazol-3-yl]cyclopropanecarboxamide]",1.7
3,"O=C(Cc1ccccc1)Nc1ccn(-c2ccc(Cl)c(F)c2)n1 [Compound 193, N-[1-(4-chloro-3-fluoro-phenyl)pyrazol-3-yl]-2-phenyl-acetamide]",> 5
4,"O=C(Cc1cccc(Cl)c1)Nc1ccn(-c2ccccc2)n1 [Compound 50, 2-(3-chlorophenyl)-N-(1-phenylpyrazol-3-yl)acetamide]",> 5
5,"Cc1ccc(-n2ccc(NC(=O)C3(c4ccccc4)CC3)n2)cn1 [Compound 118, N-(1-(6-methylpyridin-3-yl)-1H-pyrazol-3-yl)-1-phenylcyclopropane-1-carboxamide]",1.3
6,"O=C(Cc1cc(C(F)(F)F)cc(C(F)(F)F)c1)Nc1ccn(-c2ccccc2)n1 [Compound 73, 2-[3,5-bis(trifluoromethyl)phenyl]-N-(1-phenylpyrazol-3-yl)acetamide]",> 5
7,"COc1cc(-n2ccc(NC(=O)C3(c4ncccc4F)CC34CC4)n2)ccn1 (stereo not drawn) [Compound 527, 2-(3-fluoro-2-pyridyl)-N-[1-(2-methoxy-4-pyridyl)pyrazol-3-yl]spiro[2.2]pentane-2-carboxamide]",> 2
8,"O=C(Nc1ccn(-c2ccncn2)n1)C1(c2ccccc2)CC1 [Compound 207, 1-phenyl-N-(1-pyrimidin-4-ylpyrazol-3-yl)cyclopropanecarboxamide]",0.036
9,"CC[C@@H](C(=O)Nc1ccn(-c2ccccc2)n1)c1ccccc1 [Compound 28, (2R)-2-phenyl-N-(1-phenylpyrazol-3-yl)butanamide]",0.58
10,"N#Cc1cccc(C2(C(=O)Nc3ccn(-c4ccnc(F)c4)n3)CC2)c1 [Compound 243, 1-(3-cyanophenyl)-N-[1-(2-fluoro-4-pyridyl)pyrazol-3-yl]cyclopropanecarboxamide]",0.31
11,"O=C(Nc1ccn(-c2cncc(F)c2)n1)C1(c2cccs2)CC1 [Compound 483, N-[1-(5-fluoro-3-pyridyl)pyrazol-3-yl]-1-(2-thienyl)cyclopropanecarboxamide]",< 0.02
12,"CCC(C(=O)Nc1ccn(-c2ccnc(F)c2)n1)c1ccccc1 (stereo not drawn) [Compound 171, N-[1-(2-fluoro-4-pyridyl)pyrazol-3-yl]-2-phenyl-butanamide]",0.14
13,"N#Cc1ccc(C2(C(=O)Nc3ccn(-c4ccccc4)n3)CC2)cc1 [Compound 227, 1-(4-cyanophenyl)-N-(1-phenylpyrazol-3-yl)cyclopropanecarboxamide]",0.29
14,"COc1cc(-n2ccc(NC(=O)C3(c4ccccc4F)CC3)n2)ccn1 [Compound 259, 1-(2-fluorophenyl)-N-(1-(2-methoxypyridin-4-yl)-1H-pyrazol-3-yl)cyclopropane-1-carboxamide]",0.051
15,"O=C(Cc1cccc(C(F)(F)F)c1)Nc1ccn(-c2ccccc2)n1 [Compound 51, N-(1-phenylpyrazol-3-yl)-2-[3-(trifluoromethyl)phenyl]acetamide]",> 2
16,"COc1cc(CC(=O)Nc2ccn(-c3ccccc3)n2)ccc1O [Compound 9, 2-(4-hydroxy-3-methoxy-phenyl)-N-(1-phenylpyrazol-3-yl)acetamide]",> 5
17,"O=C(Nc1ccn(-c2ccnc(F)c2)n1)[C@]1(c2ccccc2)CC12CCCC2 [Compound 164, (2R)-N-[1-(2-fluoro-4-pyridyl)pyrazol-3-yl]-2-phenyl-spiro[2.4]heptane-2-carboxamide]",> 5

# Same assay, conditions: average of one or more replicates; 13C-labeled C26:0 LPC, 48 hours; read-out: Average HEK293 IC50
row,SMILES,IC50 [µM]
1,"O=C(Nc1ccn(-c2ccnc(F)c2)n1)C1(c2ccccc2)CC1(F)F (single isomer, unassigned) [Compound 369]",0.036
